Measured values published in publication PMC9926234, “Iterative computational design and crystallographic screening identifies potent inhibitors targeting the Nsp3 macrodomain of SARS-CoV-2” (Proceedings of the National Academy of Sciences of the …, 2023).
pIC50, pKi: −log10 of the molar value. Read-outs that look alike come from different tables or passages of the source.

Assays:
SARS-CoV-2 NSP3 Mac1 [1] = assay: Overall hit call (binding in crystallographic soaking or the HTRF-based binding assay)
Source text: Supplement pnas.2212931120.sd01.xlsx, sheet "Compound Summary" | column: HIT*

SARS-CoV-2 NSP3 Mac1 [2] = biological target: T1, SARS-CoV-2 NSP3 Mac1 (Severe acute respiratory syndrome coronavirus 2, UniProt P0DTD1); format: binding; parameters: contains a conserved macrodomain enzyme (Mac1); settings: for Spearman est (compound concentration vs apparent Tm): DSF dose responsiveness, 1 µM nsp3 mac1, adj p given; for DSF max dTma: maximal thermal upshift
Outline: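 ΔTma values are thermal shifts relative to a co-located DMSO-only control, read with 5 µM Fluorescent Yellow dye. Each compound was tested in triplicate over seven concentrations (two-fold steps, top 1,000 or 100 μM). Spearman correlation of concentration versus ΔTma tested whether the shift was dose-responsive.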

SARS-CoV-2 NSP3 Mac1 [3] = biological target: T1, SARS-CoV-2 NSP3 Mac1; format: binding; settings: for Refined occupancy: ligand occupancy after refinement (phenix.refine); for HIT*: true hit = binding in crystallographic soaking or the HTRF-based binding assay
SARS-CoV-2 NSP3 Mac1 [4] = biological target: T1, SARS-CoV-2 NSP3 Mac1; assay: biochemical; format: binding; settings: for pKi: Ki estimation from HTRF-derived IC50, Cheng-Prusoff, peptide 400nM, Kd 2.68µM
[5] = PanDDA 1-BDC value of the event, crystal soak, compound concentration 100 mM, per dataset
[6] = PanDDA event map, 1 minus background density correction, crystal soaking of Mac1
[7] = crystal soak, compound concentration 100 mM, per dataset
[8] = ligand modeled from this dataset, compound concentration 100 mM, Echo dispense volume 40 or 80 nl
[9] = ligand modeled in the crystal structure, crystal soak, compound concentration 100 mM, per dataset
[10] = HTRF ADPr-peptide displacement from SARS-CoV-2 Mac1, read-out: IC50

Row | Structure (SMILES) | HIT* (SARS-CoV-2 NSP3 Mac1 [1]) | Spearman est (compound concentration vs apparent Tm) (SARS-CoV-2 NSP3 Mac1 [2]) | DSF max dTma (SARS-CoV-2 NSP3 Mac1 [2]) | 1-BDC (SARS-CoV-2 NSP3 Mac1 [3]; [5]) | 1-BDC (SARS-CoV-2 NSP3 Mac1 [3]; [6]) | PanDDA hit? (SARS-CoV-2 NSP3 Mac1 [3]; [7]) | Refined occupancy (SARS-CoV-2 NSP3 Mac1 [3]; crystal soaking of Mac1) | HIT* (SARS-CoV-2 NSP3 Mac1 [3]) | pKi (SARS-CoV-2 NSP3 Mac1 [4]; read-out: Ki***) | further results
1 | O=C(O)c1ccc(F)c(CNC(=O)c2ccc3[nH]ccc3c2)c1 [Z7647] | Y |  |  |  |  |  |  |  |  | 
2 | CC(F)(F)c1cncc(C(=O)NC(Cc2cncc(Br)c2)C(=O)O)c1 (centres unmarked) [Z3140] | Y |  |  |  |  |  |  |  |  | 
3 | O=C1COc2cc(C(=O)NC3c4cccc(O)c4CC3C(=O)O)ccc2N1 (centres unmarked) [8539_0014] |  | 0.59 | 1.83 ˚C | 0.29 | 0.29 | TRUE | 58 | Y | 4.61 | Modeled? (SARS-CoV-2 NSP3 Mac1 [3]; [8]): TRUE
4 | CC(Cc1ccco1)C(=O)N[C@@H](CC(=O)O)c1ccc2c(c1)OCO2 (some centres unmarked) [Z1877] | Y |  |  |  |  |  |  |  |  | 
5 | Cc1c[nH]c2ncc(C(=O)N(C)c3nnn[nH]3)cc12 [R7335] |  | 0.73 | 1.16 ˚C |  |  |  | 40 | Y | 4.44 | 1-BDC (SARS-CoV-2 NSP3 Mac1 [3]; PanDDA event map, 1-BDC of the hit dataset, crystal soak, compound concentration 100 mM): 0.26; 1-BDC (PanDDA) (SARS-CoV-2 NSP3 Mac1 [3]; [6]): 0.2; Modeled? (SARS-CoV-2 NSP3 Mac1 [3]; ligand modeled from this dataset, compound concentration 100 mM): TRUE; pIC50 (SARS-CoV-2 NSP3 Mac1 [4]; HTRF, read-out: IC50): 4.37
6 | O=C1OCCN1C1CCN(c2ncnc3[nH]c4cc(F)ccc4c23)C1 (centres unmarked) [Z5107] | Y |  |  |  |  |  |  |  |  | 
7 | CO[C@@H]1CN(c2ncnc3[nH]c4cc(F)ccc4c23)C[C@@H](CO)O1 [Z8973] | Y |  |  |  |  |  |  |  |  | 
8 | COc1cncc(C(=O)NCCNC(=O)c2ncccc2O)c1 [Z6634] | Y |  |  |  |  |  |  |  |  | 
9 | O=C(NC1c2cccc(O)c2CC1C(=O)O)c1cnc2c(c1)CCCN2 (centres unmarked) [8539_0006] |  | −0.43 | 0 ˚C | 0.1 | 0.1 | TRUE | 20 | Y | 3.84 | Modeled? (SARS-CoV-2 NSP3 Mac1 [3]; [9]): TRUE
10 | O=C(OCCN1CCOC1=O)c1ncnc2[nH]ccc12 [Z8207] |  | 0.99 | 2.51 ˚C |  | 0.38 |  | 76 | Y | 4.28 | pIC50 (SARS-CoV-2 NSP3 Mac1 [4]; [10]): 4.22; pIC50 (SARS-CoV-2 NSP3 Mac1 [4]; HTRF, read-out: IC50): 4.22
11 | COC(=O)C1(CO)CCN(c2ncnc3[nH]c4cc(F)ccc4c23)C1 (centres unmarked) [Z9556] | Y |  |  |  |  |  |  |  |  | 
12 | O=C(Nc1ccc(C(=O)N[C@H]2c3ccccc3CC[C@H]2C(=O)O)cc1)NC1CC1 [8539_0030] |  | 0.86 | 4.92 ˚C | 0.32 | 0.32 | TRUE | 64 | Y | 5.29 | Modeled? (SARS-CoV-2 NSP3 Mac1 [3]; [9]): TRUE
13 | O=C(Nc1ccccc1)Nc1ccc(C(=O)NC2c3cccc(O)c3CC2C(=O)O)cc1 (centres unmarked) [Z8539_0023] |  | 0.81 | 9.9 ˚C | 0.17 | 0.17 | TRUE | 34 | Y |  | thermal upshift (SARS-CoV-2 NSP3 Mac1 [2]; DSF): 9 °C; Modeled? (SARS-CoV-2 NSP3 Mac1 [3]; [9]): TRUE; pIC50 (SARS-CoV-2 NSP3 Mac1 [4]; IC50, HTRF ADPr-peptide displacement from SARS-CoV-2 Mac1): 6.30; pKi (SARS-CoV-2 NSP3 Mac1 [4]; Ki***): 6.40
14 | O=C(O)Cc1ccc(CNC(=O)c2ccnc3ccsc23)cc1 [Z6625] | Y |  |  |  |  |  |  |  |  | 
15 | O=C(Nc1ccc(C(=O)NCc2c(C(=O)O)sc3ccccc23)cc1)NC1CC1 [Z8539_0025] |  | 0.17 | 0.91 ˚C | 0.24 | 0.24 | TRUE | 48 | Y | 4.75 | Modeled? (SARS-CoV-2 NSP3 Mac1 [3]; [8]): TRUE; pIC50 (SARS-CoV-2 NSP3 Mac1 [4]; [10]): 4.70; pIC50 (SARS-CoV-2 NSP3 Mac1 [4]; HTRF, read-out: IC50): 4.69
